No end group written: not given here.
Biological target: human NMB receptor (Homo sapiens, UniProt P28336)
Experiment: Binding to hNMB receptors, both cell lines
Settings: relative to the natural ligand NMB

Chain of human NMB receptor (P28336 whole entry): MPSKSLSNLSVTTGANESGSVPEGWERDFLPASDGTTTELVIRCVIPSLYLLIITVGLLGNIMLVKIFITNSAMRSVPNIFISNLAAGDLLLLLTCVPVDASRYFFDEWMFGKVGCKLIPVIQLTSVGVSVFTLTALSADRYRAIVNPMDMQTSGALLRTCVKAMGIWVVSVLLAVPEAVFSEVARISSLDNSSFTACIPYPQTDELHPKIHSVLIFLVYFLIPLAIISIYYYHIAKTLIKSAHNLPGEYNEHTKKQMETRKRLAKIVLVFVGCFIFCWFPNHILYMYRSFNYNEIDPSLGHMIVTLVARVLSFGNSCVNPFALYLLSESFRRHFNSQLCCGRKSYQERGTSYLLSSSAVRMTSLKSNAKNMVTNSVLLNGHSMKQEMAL

Substance: LSWDLPEPRSRAGKIRVHPRGNLWATGHFM-NH2 [NMB30, Neuromedin B (1–30)]
- Fold lower affinity for human NMB receptor than NMB: > 3 fold

Source: paper PMC3152620 (Peptides, 2011)
